Laboratory results published in US10385063B2, “Herbicidal compounds” (Syngenta Participations AG, priority 2015, dated 2019).

Key:
Assay in all cases: Post-emergence efficacy, glasshouse pot test
Assay type in all cases: in vivo
Settings in all cases: evaluated after 13 days
Solanum nigrum (SOLNI) = test system: Solanum nigrum (SOLNI)
Method: (§1) B1 Post-emergence Efficacy Seeds of a variety of test species are sown in standard soil in pots:— Solanum nigrum (SOLNI), Amaranthus retoflexus (AMARE), Setaria faberi (SETFA), Echinochloa crus-galli (ECHCG), Ipomoea hederacea (IPOHE), Lolium perenne (LOLPE). After 8 days cultivation (post-emergence) under controlled conditions in a glasshouse (at 24/16° C., day/night; 14 hours light; 65% humidity), the plants are sprayed with an aqueous spray solution derived from the formulation of the technical active ingredient in acetone/water (50:50) solution containing 0.5% Tween 20 (polyoxyethylene sorbitan monolaurate, CAS RN 9005-64-5). Compounds are applied at 1000 g/ha and 250 g/ha. The test plants are then grown in a glasshouse under controlled conditions in a glasshouse (at 24/16° C., day/night; 14 hours light; 65% humidity) and watered twice daily. After 13 days, the test is evaluated for the percentage damage caused to the plant. The biological activities are shown below in Table B1, on a five point scale (5=80-100%; 4=60-79%; 3=40-59%; 2=20-39%; 1=0-19%).

Setaria faberi (SETFA) = test system: Setaria faberi (SETFA)
Method: as §1

[1] = test system: Amaranthus retoflexus (AMARE)
Method: as §1

[2] = test system: Echinochloa crus-galli (ECHCG)
Method: as §1

[3] = test system: Ipomoea hederacea (IPOHE)
Method: as §1

Lolium perenne (LOLPE) = test system: Lolium perenne (LOLPE)
Method: as §1

SMILES | percentage damage caused to the plant, SOLNI (five point scale) (Solanum nigrum (SOLNI); 250 g/Ha) | percentage damage caused to the plant, SOLNI (five point scale) (Solanum nigrum (SOLNI); 1000 g/Ha) | percentage damage caused to the plant, SETFA (five point scale) (Setaria faberi (SETFA); 250 g/Ha) | percentage damage caused to the plant, SETFA (five point scale) (Setaria faberi (SETFA); 1000 g/Ha) | percentage damage caused to the plant, AMARE (five point scale) ([1]; 250 g/Ha) | percentage damage caused to the plant, AMARE (five point scale) ([1]; 1000 g/Ha) | percentage damage caused to the plant, ECHCG (five point scale) ([2]; 250 g/Ha) | percentage damage caused to the plant, ECHCG (five point scale) ([2]; 1000 g/Ha) | percentage damage caused to the plant, IPOHE (five point scale) ([3]; 250 g/Ha) | percentage damage caused to the plant, IPOHE (five point scale) ([3]; 1000 g/Ha) | percentage damage caused to the plant, LOLPE (five point scale) (Lolium perenne (LOLPE); 250 g/Ha) | percentage damage caused to the plant, LOLPE (five point scale) (Lolium perenne (LOLPE); 1000 g/Ha)
CC1(C)C(=O)C(c2c(Cl)ccc(Cl)c2OCc2ccccc2)C(=O)c2nccnc21 (stereo not drawn) [Compound 1.01, 7-(2-benzyloxy-3,6-dichloro-phenyl)-8-hydroxy-5,5-dimethyl-quinoxalin-6-one] | 5 (5=80-100%) | 5 (5=80-100%) | 5 (5=80-100%) | 5 (5=80-100%) | 5 (5=80-100%) | 5 (5=80-100%) | 5 (5=80-100%) | 5 (5=80-100%) | 5 (5=80-100%) | 5 (5=80-100%) | 5 (5=80-100%) | 5 (5=80-100%)
CC1(C)c2nccnc2C(=O)C(c2c(F)ccc(Cl)c2OCc2ccccc2)S1(=O)=O (stereo not drawn) [Compound 1.08, 7-(2-benzyloxy-3-chloro-6-fluoro-phenyl)-5,5-dimethyl-6,6-dioxo-thiopyrano[3,4-b]pyrazin-8-ol] | 5 (5=80-100%) | 5 (5=80-100%) | 5 (5=80-100%) | 5 (5=80-100%) | 5 (5=80-100%) | 5 (5=80-100%) | 4 (4=60-79%) | 5 (5=80-100%) | 5 (5=80-100%) | 5 (5=80-100%) | 5 (5=80-100%) | 5 (5=80-100%)
CC1(C)C(=O)C(c2c(F)ccc(Cl)c2OCc2ccccc2)C(=O)c2nccnc21 (stereo not drawn) [Compound 1.02] | 5 (5=80-100%) | 5 (5=80-100%) | 5 (5=80-100%) | 5 (5=80-100%) | 5 (5=80-100%) | 5 (5=80-100%) | 5 (5=80-100%) | 5 (5=80-100%) | 5 (5=80-100%) | 5 (5=80-100%) | 5 (5=80-100%) | 5 (5=80-100%)
O=C1c2nccnc2CS(=O)(=O)C1c1c(Cl)ccc(Cl)c1OCc1ccccc1 (stereo not drawn) [Compound 1.13] | 5 (5=80-100%) | 5 (5=80-100%) | 5 (5=80-100%) | 5 (5=80-100%) | 5 (5=80-100%) | 5 (5=80-100%) | 5 (5=80-100%) | 5 (5=80-100%) | 5 (5=80-100%) | 5 (5=80-100%) | 5 (5=80-100%) | 5 (5=80-100%)
